Laboratory results as given in patent US8927500B2, “Peptidomimetic macrocycles” (Aileron Therapeutics, Inc., priority 2012, dated 2015).
Where a SMILES comes first, the peptide text is derived from it. Bridges are numbered along the chain shown (N, C = ends). [ ]: non-standard residue; d: D form. R8 = C=CCCCCCC[C@@](C)(N)C(=O)O; S5 = C=CCCC[C@](C)(N)C(=O)O

Legend:
SJSA-1 cells = assay: Cell lysis by peptidomimetic macrocycles (LDH release); type: cell-based; conditions: 1 h at 37C
Caspase 3 = Caspase 3 detection assay in SJSA1 cells; type: cell-based; conditions: 48 h, Caspase 3 activation over DMSO-treated cells; for caspase 0.3 uM: 0.3 uM peptide; for caspase 3 uM: 3 uM peptide; for caspase 10 uM: 10 uM peptide; for caspase 30 uM: 30 uM peptide; for caspase 1 uM: 1 uM peptide
MDM2 = MDM2 (Homo sapiens, UniProt Q00987); assay: Competitive fluorescence polarization assay for MDM2; type: binding; conditions: competitive FP assay, MDM2; for IC50: read-out: IC50 (MDM2); for Ki: read-out: Ki (MDM2)
MDMX = target: T1, MDMX (Homo sapiens, UniProt O15151); assay: Competitive fluorescence polarization assay for MDMX; type: binding; conditions: competitive FP assay; for IC50: read-out: IC50 (MDMX); for Ki: read-out: Ki (MDMX)
T1 sequence (O15151 1-125): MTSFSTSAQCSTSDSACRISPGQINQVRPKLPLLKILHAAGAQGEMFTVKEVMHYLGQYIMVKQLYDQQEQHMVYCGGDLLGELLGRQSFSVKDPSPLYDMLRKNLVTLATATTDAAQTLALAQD

Chain of MDM2 (Q00987 1-125): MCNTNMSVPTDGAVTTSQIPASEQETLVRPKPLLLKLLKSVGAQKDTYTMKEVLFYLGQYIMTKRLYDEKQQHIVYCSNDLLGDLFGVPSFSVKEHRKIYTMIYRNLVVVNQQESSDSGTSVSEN

Row | IC50 (MDM2) | Ki (MDM2) | IC50 (MDMX) | Ki (MDMX) | Compound | 6.25 uM % Lysed cells (1 h LDH) (SJSA-1 cells) | 25 uM % Lysed cells (1 h LDH) (SJSA-1 cells) | 50 uM % Lysed cells (1 h LDH) (SJSA-1 cells) | caspase 0.3 uM (Caspase 3) | caspase 3 uM (Caspase 3) | caspase 10 uM (Caspase 3) | caspase 30 uM (Caspase 3) | caspase 1 uM (Caspase 3)
1 | – | – | – | – | CC(=O)N[C@@H](CC(C)C)C(=O)N[C@H](C(=O)N[C@@H](Cc1ccccc1)C(=O)N[C@]1(C)CCCCCCC=CCCC[C@@](C)(C(=O)N[C@@H](C)C(=O)N[C@@H](C)C(=O)N[C@@H](Cc2ccccc2)C(=O)N[C@H](C)C(N)=O)NC(=O)[C@H](CC(C)C)NC(=O)[C@H](CCC(N)=O)NC(=O)[C@H](C)NC(=O)[C@H](Cc2c[nH]c3ccccc23)NC(=O)[C@H](Cc2ccc(O)cc2)NC(=O)[C@H](CCC(=O)O)NC1=O)[C@@H](C)O (single isomer, unassigned) [compound 219] | 0% | −1% | 2% | 1 | 5 | 17 | 34 | –
2 | – | – | – | – | CC(=O)N[C@@H](CC(C)C)C(=O)N[C@H](C(=O)N[C@@H](Cc1ccccc1)C(=O)N[C@]1(C)CCCCCC/C=C/CCC[C@@](C)(C(=O)N[C@@H](C)C(=O)N[C@@H](C)C(=O)N[C@@H](C)C(=O)N[C@@H](C)C(=O)N[C@@H](C)C(=O)N[C@H](C)C(N)=O)NC(=O)[C@H](CC(C)C)NC(=O)[C@H](CCC(N)=O)NC(=O)[C@H](C)NC(=O)[C@H](Cc2c[nH]c3ccccc23)NC(=O)[C@H](Cc2ccc(O)cc2)NC(=O)[C@H](CCC(=O)O)NC1=O)[C@@H](C)O [compound 331] (Ac-LTF[R8]EYWAQL[S5]AAAAA[dA]-NH2; staple (E) 4-11) | 0% | 0% | 0% | 4.5 | 11 | 14.5 | 30.5 | 8
3 | – | – | – | – | CC(=O)N[C@@H](CC(C)C)C(=O)N[C@H](C(=O)N[C@@H](Cc1ccccc1)C(=O)N[C@]1(C)CCCCCCC=CCCC[C@@](C)(C(=O)N[C@@H](CO)C(=O)N[C@@H](C)C(=O)N[C@@H](C)C(N)=O)NC(=O)[C@H](CC2CCC2)NC(=O)[C@H](CCC(N)=O)NC(=O)[C@H](C)NC(=O)[C@H](Cc2c[nH]c3ccccc23)NC(=O)[C@H](Cc2ccc(O)cc2)NC(=O)[C@H](CCC(=O)O)NC1=O)[C@@H](C)O (single isomer, unassigned) [compound 153] | 4% | 2% | 3% | 2 | 10 | 15 | 20 | –
4 | – | – | – | – | CC[C@H](C)[C@H](NC(=O)[C@H](C)NC(=O)[C@H](C)NC(=O)[C@]1(C)CCCC=CCCCCCC[C@@](C)(NC(=O)[C@H](Cc2ccccc2)NC(=O)[C@@H](NC(=O)[C@H](CC(C)C)NC(C)=O)[C@@H](C)O)C(=O)N[C@@H](C)C(=O)N[C@@H](Cc2ccc(O)cc2)C(=O)N[C@@H](Cc2c[nH]c3ccccc23)C(=O)N[C@@H](C)C(=O)N[C@@H](CCC(N)=O)C(=O)N[C@@H](CC(C)C)C(=O)N1)C(=O)N[C@H](CC(C)C)C(N)=O (single isomer, unassigned) [compound 81] | 1% | 0% | 0% | 1 | 1 | 6 | 21 | –
5 | – | – | – | – | CC(=O)N[C@@H](CC(C)C)C(=O)N[C@H](C(=O)N[C@@H](Cc1ccc(F)c(F)c1)C(=O)N[C@]1(C)CCCCCC/C=C/CCC[C@@](C)(C(=O)N[C@@H](CO)C(=O)N[C@@H](C)C(=O)N[C@@H](C)C(N)=O)NC(=O)[C@H](CCC(C)C)NC(=O)[C@H](CCC(N)=O)NC(=O)[C@H](C)NC(=O)[C@H](Cc2c[nH]c3ccccc23)NC(=O)[C@H](Cc2ccc(O)cc2)NC(=O)[C@H](CCC(=O)O)NC1=O)[C@@H](C)O [compound 160] | −1% | −1% | 1% | 2 | 10 | 16 | 31 | –
6 | – | – | – | – | CC[C@H](C)[C@H](NC(=O)[C@H](C)NC(=O)[C@H](C)NC(=O)[C@]1(C)CCCC=CCCCCCC[C@@](C)(NC(=O)[C@H](Cc2ccccc2)NC(=O)[C@@H](NC(=O)[C@H](CC(C)C)NC(C)=O)[C@@H](C)O)C(=O)N[C@@H](CCC(=O)O)C(=O)N[C@@H](Cc2c[nH]cn2)C(=O)N[C@@H](Cc2c[nH]c3ccccc23)C(=O)N[C@@H](C)C(=O)N[C@@H](CCC(N)=O)C(=O)N[C@@H](CC(C)C)C(=O)N1)C(=O)N[C@H](C)C(N)=O (single isomer, unassigned) [compound 223] | −2% | −4% | −1% | 1 | 1 | 5 | 18 | –
7 | – | – | – | – | CC(=O)N[C@@H](CC(C)C)C(=O)N[C@H](C(=O)N[C@@H](Cc1ccccc1)C(=O)N[C@]1(C)CCCCCCC=CCCC[C@@](C)(C(=O)N[C@@H](C)C(=O)N[C@@H](Cc2c[nH]cn2)C(=O)N[C@@H](Cc2ccccc2)C(=O)N[C@@H](C)C(N)=O)NC(=O)[C@H](CC(C)C)NC(=O)[C@H](CCC(N)=O)NC(=O)[C@H](C)NC(=O)[C@H](Cc2c[nH]c3ccccc23)NC(=O)[C@H](Cc2c[nH]cn2)NC(=O)[C@H](C)NC1=O)[C@@H](C)O [compound 183] (Ac-LTF[R8]AHWAQL[S5]AHFA-NH2; staple 4-11) | 2% | 0% | 3% | 1 | 1 | 4 | 8 | –
8 | – | – | – | – | CC(=O)N[C@@H](CC(C)C)C(=O)N[C@H](C(=O)N[C@@H](Cc1ccccc1)C(=O)N[C@]1(C)CCCCCCC=CCCC[C@@](C)(C(=O)N[C@@H](C)C(=O)N[C@@H](C)C(=O)N[C@@H](C)C(=O)N[C@@H](C)C(=O)N[C@@H](C)C(=O)N[C@H](C)C(N)=O)NC(=O)[C@H](CC(C)C)NC(=O)[C@H](CCC(N)=O)NC(=O)[C@H](C)NC(=O)[C@H](Cc2c[nH]c3cc(Cl)ccc23)NC(=O)[C@H](Cc2ccc(O)cc2)NC(=O)[C@H](C)NC1=O)[C@@H](C)O (single isomer, unassigned) [compound 338] | 0% | 0% | 1% | 1 | 23 | 20 | 29 | 5
9 | < 10 nM | < 10 nM | 10 to 100 nM | < 10 nM | CC[C@H](C)[C@H](NC(=O)[C@H](C)NC(=O)[C@H](C)NC(=O)[C@]1(C)CCCC=CCCCCCC[C@@](C)(NC(=O)[C@H](Cc2ccccc2)NC(=O)[C@@H](NC(=O)[C@H](CC(C)C)NC(C)=O)[C@@H](C)O)C(=O)N[C@@H](CCC(=O)O)C(=O)N[C@@H](Cc2ccc(C(=O)O)cc2)C(=O)N[C@@H](Cc2c[nH]c3cc(Cl)ccc23)C(=O)N[C@@H](C)C(=O)N[C@@H](CCC(N)=O)C(=O)N[C@@H](CC2CCC2)C(=O)N1)C(=O)N[C@H](C)C(N)=O (single isomer, unassigned) [compound 336] | 0% | 0% | 0% | – | – | – | – | –
10 | – | – | – | – | CSCC[C@H](NC(=O)[C@H](C)NC(=O)[C@H](C)NC(=O)[C@]1(C)CCCC=CCCCCCC[C@@](C)(NC(=O)[C@H](Cc2ccccc2)NC(=O)[C@@H](NC(=O)[C@H](CC(C)C)NC(C)=O)[C@@H](C)O)C(=O)N[C@@H](C)C(=O)N[C@@H](Cc2ccc(O)cc2)C(=O)N[C@@H](Cc2c[nH]c3ccccc23)C(=O)N[C@@H](C)C(=O)N[C@@H](C)C(=O)N[C@@H](CC(C)C)C(=O)N1)C(=O)N[C@H](C)C(N)=O [compound 72] (Ac-LTF[R8]AYWAAL[S5]AAM[dA]-NH2; staple 4-11) | 2% | 0% | 3% | 1 | 1 | 4 | 10 | –
11 | – | – | – | – | CC(=O)N[C@@H](CC(C)C)C(=O)N[C@H](C(=O)N[C@@H](Cc1ccccc1)C(=O)N[C@]1(C)CCCCCCC=CCCC[C@@](C)(C(=O)N[C@@H](CO)C(=O)N[C@@H](C)C(=O)N[C@@H](C)C(N)=O)NC(=O)[C@H](C2CCCC2)NC(=O)[C@H](CCC(N)=O)NC(=O)[C@H](C)NC(=O)[C@H](Cc2c[nH]c3ccccc23)NC(=O)[C@H](Cc2ccc(O)cc2)NC(=O)[C@H](CCC(=O)O)NC1=O)[C@@H](C)O (single isomer, unassigned) [compound 149] | 6% | 7% | 21% | 1 | 2 | 4 | 10 | –
12 | < 10 nM | < 10 nM | 100 to 1000 nM | 10 to 100 nM | CC(=O)N[C@@H](CC(C)C)C(=O)N[C@H](C(=O)N[C@@H](Cc1ccccc1)C(=O)N[C@]1(C)CCCCCCC=CCCC[C@@](C)(C(=O)N[C@@H](C)C(=O)N[C@@H](C)C(=O)N[C@@H](Cc2c[nH]c3ccccc23)C(=O)N[C@H](C)C(N)=O)NC(=O)[C@H](CC(C)C)NC(=O)[C@H](CCC(N)=O)NC(=O)[C@H](C)NC(=O)[C@H](Cc2c[nH]c3ccccc23)NC(=O)[C@H](Cc2ccc(O)cc2)NC(=O)[C@H](C)NC1=O)[C@@H](C)O [compound 211] (Ac-LTF[R8]AYWAQL[S5]AAW[dA]-NH2; staple 4-11) | 5% | 3% | 1% | – | – | – | – | –
